pIC50: −log10 of the molar value. One block for each compound: values may come before it. Activity calls are given as the source filed them. The rule behind the calls is not given here.
Tests used:
RAW264.7 = assay: Inhibition of LPS-induced NF-kappaB activation in mouse RAW264.7 cells transfected with luciferase reporter gene at 20 uM pretreated with compounds for 30 mins followed by LPS stimulation for 8 hrs by luciferase reporter gene assay; format: cell-based; settings: time 8.5 hrs
Danio rerio [1] = species: Danio rerio; assay: Anti osteoporosis activity in prednisone induced Tg (ola.sp7:nlsGFP) Zebrafish model assessed as mitigation of fluorescence area reduction in zebrafish opercle at 2.5 to 5 uM by microscopy based analysis; format: functional, organism-based; settings: dose 2.5-5 µM
Danio rerio [2] = species: Danio rerio; assay: Anti osteoporosis activity in prednisolone induced Tg (ola.sp7:nlsGFP) Zebrafish model assessed as upregulation of col1a2 mRNA expression at 5 uM by real-time qPCR analysis; format: functional, organism-based
[3] = target: T1, Interferon regulatory factor 3 (Homo sapiens) (UniProt Q14653); assay: Inhibition of IRF3 induced IFN-beta luciferase activation in HEK293T cells at 1 to 30 uM by Dual luciferase reporter assay; format: cell-based; settings: dose 1-30 µM
T1 sequence (whole entry): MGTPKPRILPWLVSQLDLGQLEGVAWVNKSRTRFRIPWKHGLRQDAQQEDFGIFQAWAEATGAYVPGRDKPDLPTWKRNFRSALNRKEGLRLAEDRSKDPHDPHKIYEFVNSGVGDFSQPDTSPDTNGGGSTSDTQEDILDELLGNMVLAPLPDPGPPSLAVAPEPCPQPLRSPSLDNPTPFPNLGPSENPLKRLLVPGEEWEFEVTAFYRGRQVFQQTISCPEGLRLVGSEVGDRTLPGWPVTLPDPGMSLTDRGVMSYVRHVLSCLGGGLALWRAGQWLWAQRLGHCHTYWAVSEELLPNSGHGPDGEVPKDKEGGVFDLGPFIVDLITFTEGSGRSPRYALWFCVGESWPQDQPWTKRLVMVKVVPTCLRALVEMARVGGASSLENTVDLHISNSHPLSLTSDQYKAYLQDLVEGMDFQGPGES

[4] = Inhibition of LPS-induced NF-kappaB activation in mouse RAW264.7 cells transfected with luciferase reporter gene pretreated with compounds for 30 mins followed by LPS stimulation for 8 hrs by luciferase reporter gene assay; format: cell-based
Danio rerio [5] = species: Danio rerio; assay: Anti osteoporosis activity in prednisone induced Tg (ola.sp7:nlsGFP) Zebrafish model assessed as mitigation of fluorescence density reduction in zebrafish branchiostegal rays at 2.5 to 5 uM by microscopy based analysis; format: functional, organism-based; settings: dose 2.5-5 µM
[6] = target: T2, Serine/threonine-protein kinase TBK1 (Homo sapiens) (UniProt Q9UHD2); assay: Inhibition of TBK1 induced IFN-beta luciferase activation in HEK293T cells at 1 to 30 uM by Dual luciferase reporter assay; format: cell-based; settings: dose 1-30 µM
T2 sequence (whole entry): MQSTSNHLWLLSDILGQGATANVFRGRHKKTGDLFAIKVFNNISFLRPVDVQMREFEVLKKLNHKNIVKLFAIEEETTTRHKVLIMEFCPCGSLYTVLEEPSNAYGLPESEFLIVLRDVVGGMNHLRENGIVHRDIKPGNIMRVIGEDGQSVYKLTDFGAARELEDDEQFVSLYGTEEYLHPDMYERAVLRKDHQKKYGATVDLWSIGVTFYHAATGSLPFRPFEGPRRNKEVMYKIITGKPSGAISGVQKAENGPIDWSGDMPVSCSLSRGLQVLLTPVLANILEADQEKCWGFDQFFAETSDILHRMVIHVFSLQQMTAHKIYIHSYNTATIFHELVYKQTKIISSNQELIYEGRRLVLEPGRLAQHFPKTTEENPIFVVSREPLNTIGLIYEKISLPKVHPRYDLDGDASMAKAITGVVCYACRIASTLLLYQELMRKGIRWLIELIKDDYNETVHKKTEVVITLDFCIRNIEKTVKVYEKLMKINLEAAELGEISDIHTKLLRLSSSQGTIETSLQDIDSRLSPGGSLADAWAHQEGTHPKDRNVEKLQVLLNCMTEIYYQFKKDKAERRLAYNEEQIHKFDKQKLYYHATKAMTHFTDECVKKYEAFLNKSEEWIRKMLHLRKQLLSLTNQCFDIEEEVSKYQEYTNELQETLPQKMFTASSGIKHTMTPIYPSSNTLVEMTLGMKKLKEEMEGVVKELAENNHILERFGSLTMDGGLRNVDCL

Danio rerio [7] = species: Danio rerio; assay: Anti osteoporosis activity in Tg (ola.sp7:nlsGFP) Zebrafish model assessed as reversal of prednisone induced bmp2a gene inhibition 2.5 to 10 uM by real-time qPCR analysis; format: functional, organism-based; settings: dose 2.5-10 µM
HEK293T = assay: Inhibition of cGAS/STING induced IFN-beta luciferase activation in HEK293T cells at 1 to 30 uM by Dual luciferase reporter assay; format: cell-based; settings: Homo sapiens, dose 1-30 µM
Danio rerio [8] = species: Danio rerio; assay: Anti osteoporosis activity in prednisolone induced Tg (ola.sp7:nlsGFP) Zebrafish model assessed as upregulation of frem2b mRNA expression at 5 uM by real-time qPCR analysis; format: functional, organism-based
BMDM [9] = assay: Downregulation of IFN-beta mRNA expression in mouse BMDM cells by real-time PCR analysis; format: functional, cell-based; settings: dose 1-30 µM
Danio rerio [10] = species: Danio rerio; assay: Anti osteoporosis activity in prednisolone induced Tg (ola.sp7:nlsGFP) Zebrafish model assessed as upregulation of vdrb-mRNA expression at 5 uM by real-time qPCR analysis; format: functional, organism-based
Danio rerio [11] = species: Danio rerio; assay: Anti osteoporosis activity in Tg (ola.sp7:nlsGFP) Zebrafish model assessed as reversal of prednisone induced alp gene inhibition 2.5 to 10 uM by real-time qPCR analysis; format: functional, organism-based; settings: dose 2.5-10 µM
Danio rerio [12] = species: Danio rerio; assay: Anti osteoporosis activity in prednisolone induced Tg (ola.sp7:nlsGFP) Zebrafish model assessed as upregulation of frem2a mRNA expression at 5 uM by real-time qPCR analysis; format: functional, organism-based
BMDM [13] = assay: Downregulation of TNF-alpha mRNA expression in mouse BMDM cells by real-time PCR analysis; format: functional, cell-based; settings: dose 1-30 µM
Danio rerio [14] = species: Danio rerio; assay: Anti osteoporosis activity in prednisolone induced Tg (ola.sp7:nlsGFP) Zebrafish model assessed as upregulation of col4a6 mRNA expression at 5 uM by real-time qPCR analysis; format: functional, organism-based
BMMC [15] = assay: Cytotoxicity against mouse BMMC cells at 5 to 15 uM measured after 72 hrs by MTT assay; format: toxicity, cell-based; settings: dose 5-15 µM
BMDM [16] = assay: Downregulation of CXCL10 mRNA expression in mouse BMDM cells by real-time PCR analysis; format: functional, cell-based; settings: dose 1-30 µM
BMMC [17] = assay: Anti-osteoporosis activity in mouse BMMC cells assessed as inhibition of RANKL-induced osteoclast differentiation measured after 3 days in presence of MCSF by TRAP staining based assay; format: functional, cell-based; settings: dose 5-15 µM, time 3.0 day
Danio rerio [18] = species: Danio rerio; assay: Anti osteoporosis activity in Tg (ola.sp7:nlsGFP) Zebrafish model assessed as reversal of prednisone induced bmp4 gene inhibition 2.5 to 10 uM by real-time qPCR analysis; format: functional, organism-based; settings: dose 2.5-10 µM
Danio rerio [19] = species: Danio rerio; assay: Anti osteoporosis activity in prednisolone induced Tg (ola.sp7:nlsGFP) Zebrafish model assessed as upregulation of itbg5 mRNA expression at 5 uM by real-time qPCR analysis; format: functional, organism-based
Danio rerio [20] = species: Danio rerio; assay: Anti osteoporosis activity in prednisone induced Tg (ola.sp7:nlsGFP) Zebrafish model assessed as mitigation of fluorescence area reduction in zebrafish branchiostegal rays at 2.5 to 5 uM by microscopy based analysis; format: functional, organism-based; settings: dose 2.5-5 µM
Danio rerio [21] = species: Danio rerio; assay: Anti osteoporosis activity in prednisone induced Tg (ola.sp7:nlsGFP) Zebrafish model assessed as mitigation of fluorescence density reduction in zebrafish opercle at 2.5 to 5 uM by microscopy based analysis; format: functional, organism-based; settings: dose 2.5-5 µM

Compound: CC(C)(O)C(=O)CC[C@@]1(C)[C@@H]2C=C(C(=O)O)CC[C@@H]21
inhibition (RAW264.7): Active

Compound: C[C@]1(C(=O)O)[C@@H]2C=C(C(=O)O)CC[C@@H]21
inhibition (RAW264.7): Active

inhibition [3]: Active
pIC50 [4]: 4.84
inhibition [6]: Active
Compound: COC(=O)CC[C@@]1(C)[C@@H]2C=C(C(=O)O)CC[C@@H]21
Activity (Danio rerio [1]): Active
Activity (Danio rerio [2]): Active
Activity (Danio rerio [5]): Active
Activity (Danio rerio [7]): Active
inhibition (HEK293T): Active
Activity (Danio rerio [8]): Active
Activity (BMDM [9]): Dose-Dependent Effect
Activity (Danio rerio [10]): Active
Activity (Danio rerio [11]): Active
Activity (Danio rerio [12]): Active
Activity (BMDM [13]): Dose-Dependent Effect
Activity (Danio rerio [14]): Active
Activity (BMMC [15]): Non-Toxic
Activity (BMDM [16]): Dose-Dependent Effect
Activity (BMMC [17]): Dose-Dependent Effect
Activity (Danio rerio [18]): Active
Activity (Danio rerio [19]): Active
Activity (Danio rerio [20]): Active
Activity (Danio rerio [21]): Active
inhibition (RAW264.7): Active

— ChEMBL document CHEMBL5518173, “Discovery of a novel anti-osteoporotic agent from marine fungus-derived structurally diverse sirenins” (Eur J Med Chem, 2024)
